# Measurements: PMC8025945 (Journal of medicinal chemistry, 2017)
# Like-named read-outs stand apart in the source and are kept apart here.
# What was measured:
# recombinant Top1 = target: T1, recombinant Top1 (Homo sapiens, UniProt P11387); assay: Top1-mediated DNA cleavage assay; format: biochemical; conditions: semiquantitative scale relative to 1 μM MJ-III-65 (6) and 1 μM camptothecin (1)
# T1 sequence (P11387 1-765): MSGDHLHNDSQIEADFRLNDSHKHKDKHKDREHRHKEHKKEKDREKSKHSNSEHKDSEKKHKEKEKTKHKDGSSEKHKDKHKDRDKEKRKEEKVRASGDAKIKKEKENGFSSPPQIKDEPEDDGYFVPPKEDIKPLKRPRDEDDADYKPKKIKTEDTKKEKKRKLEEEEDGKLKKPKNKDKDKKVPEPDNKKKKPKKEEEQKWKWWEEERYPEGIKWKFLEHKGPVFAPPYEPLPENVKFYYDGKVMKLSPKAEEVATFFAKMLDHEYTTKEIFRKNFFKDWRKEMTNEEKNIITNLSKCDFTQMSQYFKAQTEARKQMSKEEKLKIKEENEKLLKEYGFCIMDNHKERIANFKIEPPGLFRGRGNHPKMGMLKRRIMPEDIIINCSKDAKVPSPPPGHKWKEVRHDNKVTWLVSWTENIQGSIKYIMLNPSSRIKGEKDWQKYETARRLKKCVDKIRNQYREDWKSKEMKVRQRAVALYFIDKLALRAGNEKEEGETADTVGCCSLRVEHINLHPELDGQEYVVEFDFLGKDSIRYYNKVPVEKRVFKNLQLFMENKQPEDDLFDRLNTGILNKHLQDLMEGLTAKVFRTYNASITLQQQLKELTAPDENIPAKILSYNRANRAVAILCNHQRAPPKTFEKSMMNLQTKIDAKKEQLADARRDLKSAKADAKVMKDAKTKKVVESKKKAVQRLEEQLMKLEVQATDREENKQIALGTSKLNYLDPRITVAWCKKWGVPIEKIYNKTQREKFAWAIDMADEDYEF
# zebrafish embryos = conditions: for lethality in zebrafish (comparison between compounds): statistical comparison of 9, 16b and 17b
# HCT-116 = assay: NCI-60 human tumor cell line screen, colon HCT-116; conditions: read-out: cytotoxicity (GI50) colon HCT-116; 50% growth inhibition
# UACC-62 = assay: NCI-60 human tumor cell line screen, melanoma UACC-62; conditions: read-out: cytotoxicity (GI50) melanoma UACC-62; 50% growth inhibition
# DU-145 = assay: NCI-60 human tumor cell line screen, prostate DU-145; conditions: read-out: cytotoxicity (GI50) prostate DU-145; 50% growth inhibition
# SF-539 = assay: NCI-60 human tumor cell line screen, CNS SF-539; conditions: read-out: cytotoxicity (GI50) CNS SF-539; 50% growth inhibition
# OVCAR-3 = assay: NCI-60 human tumor cell line screen, ovarian OVCAR-3; conditions: read-out: cytotoxicity (GI50) ovarian OVCAR-3; 50% growth inhibition
# HOP-62 = assay: NCI-60 human tumor cell line screen, lung HOP-62; conditions: read-out: cytotoxicity (GI50) lung HOP-62; 50% growth inhibition
# SN12C = assay: NCI-60 human tumor cell line screen, renal SN12C; conditions: read-out: cytotoxicity (GI50) renal SN12C; 50% growth inhibition
# MCF-7 = assay: NCI-60 human tumor cell line screen, breast MCF-7; conditions: read-out: cytotoxicity (GI50) breast MCF-7; 50% growth inhibition
# [1] = test system: NCI-60 human tumor cell lines; assay: NCI-60 mean graph midpoint; conditions: read-out: MGM GI50
smiles,measurement,setting,value
"CNCCCn1c2c(c3ccc(F)cc3c1=O)C(=O)c1cc(OC)cnc1-2 [17g, 3-Fluoro-9-methoxy-6-(3-(methylamino)propyl)-5H-pyrido[3′,2′:4,5]cyclopenta[1,2-c]isoquinoline-5,11(6H)-dione]",enzyme inhibitory activity Top1 (compound-induced DNA cleavage score),recombinant Top1,+
"COc1cnc2c(c1)C(=O)c1c-2n(CCCNC2=NCCS2)c(=O)c2cc(F)ccc12 [17c, 3-Fluoro-6-(3-((4,5-dihydrothiazol-2-yl)amino)propyl)-9-methoxy-5H-pyrido[3′,2′:4,5]cyclopenta[1,2-c]isoquinoline-5,11(6H)-dione]",enzyme inhibitory activity Top1 (compound-induced DNA cleavage score),recombinant Top1,++
"COc1cnc2c(c1)C(=O)c1c-2n(CCCn2ccnc2)c(=O)c2cc(Cl)ccc12 [compound 16b, 3-Chloro-6-(3-(1H-Imidazol-1-yl)propyl)-9-methoxy-5H-pyrido[3′,2′:4,5]cyclopenta[1,2-c]isoquinoline-5,11(6H)-dione]",lethality in zebrafish (comparison between compounds),zebrafish embryos,lethality difference between them is not significant
same,enzyme inhibitory activity Top1 (compound-induced DNA cleavage score),recombinant Top1,+++
"COc1cnc2c(c1)C(=O)c1c-2n(CCCN2CCNCC2)c(=O)c2cc(F)ccc12 [17e, 3-Fluoro-9-methoxy-6-(3-(piperazin-1-yl)propyl)-5H-pyrido[3′,2′:4,5]cyclopenta[1,2-c]isoquinoline-5,11(6H)-dione]",enzyme inhibitory activity Top1 (compound-induced DNA cleavage score),recombinant Top1,+
"COc1cnc2c(c1)C(=O)c1c-2n(CCCN2CCCC2)c(=O)c2cc(F)ccc12 [17i, 3-Fluoro-9-methoxy-6-(3-(pyrrolidin-1-yl)propyl)-5H-pyrido[3′,2′:4,5]cyclopenta[1,2-c]isoquinoline-5,11(6H)-dione]",enzyme inhibitory activity Top1 (compound-induced DNA cleavage score),recombinant Top1,+++
"COc1cnc2c(c1)C(=O)c1c-2n(CCCN2CCOCC2)c(=O)c2cc(Cl)ccc12 [compound 16a, 3-Chloro-9-methoxy-6-(3-morpholinopropyl)-5H-pyrido[3′,2′:4,5]cyclopenta[1,2-c]isoquinoline-5,11(6H)-dione]",enzyme inhibitory activity Top1 (compound-induced DNA cleavage score),recombinant Top1,+++
"COc1cnc2c(c1)C(=O)c1c-2n(CCCNC2=NCCS2)c(=O)c2cc(Cl)ccc12 [compound 16c, 3-Chloro-6-(3-((4,5-dihydrothiazol-2-yl)amino)propyl)-9-methoxy-5H-pyrido[3′,2′:4,5]cyclopenta[1,2-c]isoquinoline-5,11(6H)-dione]",enzyme inhibitory activity Top1 (compound-induced DNA cleavage score),recombinant Top1,++
"CCNCCCn1c2c(c3ccc(F)cc3c1=O)C(=O)c1cc(OC)cnc1-2 [17h, 6-(3-(Ethylamino)propyl)-3-fluoro-9-methoxy-5H-pyrido[3′,2′:4,5]cyclopenta[1,2-c]isoquinoline-5,11(6H)-dione]",enzyme inhibitory activity Top1 (compound-induced DNA cleavage score),recombinant Top1,++
COc1cnc2c(c1)C(=O)c1c-2n(CCCN2CCOCC2)c(=O)c2cc([N+](=O)[O-])ccc12 [compound 10],GI50,HCT-116,0.05 µM
same,GI50,UACC-62,0.04 µM
same,GI50,DU-145,0.04 µM
same,GI50,SF-539,0.035 µM
same,GI50,OVCAR-3,0.11 µM
same,GI50,HOP-62,0.051 µM
same,GI50,SN12C,0.043 µM
same,GI50,MCF-7,0.02 µM
same,enzyme inhibitory activity Top1 (compound-induced DNA cleavage score),recombinant Top1,++++
"COc1cnc2c(c1)C(=O)c1c-2n(CCCn2ccnc2)c(=O)c2cc(F)ccc12 [compound 17b, 3-Fluoro-6-(3-(1H-imidazol-1-yl)propyl)-9-methoxy-5H-pyrido[3′,2′:4,5]-cyclopenta[1,2-c]isoquinoline-5,11(6H)-dione]",lethality in zebrafish (comparison between compounds),zebrafish embryos,lethality difference between them is not significant
same,enzyme inhibitory activity Top1 (compound-induced DNA cleavage score),recombinant Top1,+++
"COc1cnc2c(c1)C(=O)c1c-2n(CCCN2CCNCC2)c(=O)c2cc(Cl)ccc12 [16e, 3-Chloro-9-methoxy-6-(3-(piperazin-1-yl)propyl)-5H-pyrido[3′,2′:4,5]cyclopenta[1,2-c]isoquinoline-5,11(6H)-dione]",enzyme inhibitory activity Top1 (compound-induced DNA cleavage score),recombinant Top1,+
"COc1cnc2c(c1)C(=O)c1c-2n(CCCNC(C)C)c(=O)c2cc(Cl)ccc12 [16f, 3-Chloro-9-methoxy-6-(3-(isopropylamino)propyl)-5H-pyrido[3′,2′:4,5]cyclopenta[1,2-c]isoquinoline-5,11(6H)-dione]",enzyme inhibitory activity Top1 (compound-induced DNA cleavage score),recombinant Top1,++
"COc1cnc2c(c1)C(=O)c1c-2n(CCCN2CCC(O)CC2)c(=O)c2cc(Cl)ccc12 [compound 16d, 3-Chloro-6-(3-(4-hydroxypiperidin-1-yl)propyl)-9-methoxy-5H-pyrido[3′,2′:4,5]cyclopenta[1,2-c]isoquinoline-5,11(6H)-dione]",enzyme inhibitory activity Top1 (compound-induced DNA cleavage score),recombinant Top1,++++
"COc1cnc2c(c1)C(=O)c1c-2n(CCCN2CCOCC2)c(=O)c2cc(F)ccc12 [17a, 3-Fluoro-9-methoxy-6-(3-morpholinopropyl)-5H-pyrido[3′,2′:4,5]cyclopenta[1,2-c]isoquinoline-5,11(6H)-dione]",enzyme inhibitory activity Top1 (compound-induced DNA cleavage score),recombinant Top1,+++
"COc1cnc2c(c1)C(=O)c1c-2n(CCCN2CCC(O)CC2)c(=O)c2cc(F)ccc12 [17d, 3-Fluoro-6-(3-(4-hydroxypiperidin-1-yl)propyl)-9-methoxy-5H-pyrido[3′,2′:4,5]cyclopenta[1,2-c]isoquinoline-5,11(6H)-dione]",enzyme inhibitory activity Top1 (compound-induced DNA cleavage score),recombinant Top1,+
COc1cnc2c(c1)C(=O)c1c-2n(CCCn2ccnc2)c(=O)c2cc([N+](=O)[O-])ccc12 [compound 9],GI50,HCT-116,< 0.01 µM
same,zebrafish survival percentage,"zebrafish embryos; 0.1 μM in medium, 48 h after fertilization",0 ± 0 %
same,zebrafish survival percentage,"zebrafish embryos; 0.1 μM in medium, 72 h after fertilization",0 ± 0 %
same,zebrafish survival percentage,"zebrafish embryos; 0.1 μM in medium, 96 h after fertilization",0 ± 0 %
same,zebrafish survival percentage,"zebrafish embryos; 0.1 μM in medium, 120 h after fertilization",0 ± 0 %
same,zebrafish survival percentage,"zebrafish embryos; 1 μM in medium, 24 h after fertilization",0 ± 0 %
same,zebrafish survival percentage,"zebrafish embryos; 1 μM in medium, 48 h after fertilization",0 ± 0 %
same,zebrafish survival percentage,"zebrafish embryos; 1 μM in medium, 72 h after fertilization",0 ± 0 %
same,zebrafish survival percentage,"zebrafish embryos; 1 μM in medium, 96 h after fertilization",0 ± 0 %
same,zebrafish survival percentage,"zebrafish embryos; 1 μM in medium, 120 h after fertilization",0 ± 0 %
same,zebrafish survival percentage,"zebrafish embryos; 10 μM in medium, 24 h after fertilization",0 ± 0 %
same,zebrafish survival percentage,"zebrafish embryos; 10 μM in medium, 48 h after fertilization",0 ± 0 %
same,zebrafish survival percentage,"zebrafish embryos; 10 μM in medium, 72 h after fertilization",0 ± 0 %
same,zebrafish survival percentage,"zebrafish embryos; 10 μM in medium, 96 h after fertilization",0 ± 0 %
same,zebrafish survival percentage,"zebrafish embryos; 10 μM in medium, 120 h after fertilization",0 ± 0 %
same,lethality in zebrafish (comparison between compounds),zebrafish embryos,significantly more lethal
same,GI50,UACC-62,< 0.01 µM
same,GI50,DU-145,< 0.01 µM
same,GI50,SF-539,< 0.01 µM
same,GI50,OVCAR-3,0.025 µM
same,GI50,HOP-62,< 0.01 µM
same,GI50,SN12C,< 0.01 µM
same,GI50,MCF-7,< 0.01 µM
same,GI50,[1],0.021 µM
O=C1c2ccccc2-c2c1c1ccc([N+](=O)[O-])cc1c(=O)n2CCCn1ccnc1 [compound 7],GI50,HCT-116,0.274 µM
same,GI50,UACC-62,0.012 µM
same,GI50,DU-145,0.017 µM
same,GI50,SF-539,0.016 µM
same,GI50,OVCAR-3,0.864 µM
same,GI50,HOP-62,0.19 µM
same,GI50,SN12C,0.015 µM
same,GI50,MCF-7,2.17 µM
same,enzyme inhibitory activity Top1 (compound-induced DNA cleavage score),recombinant Top1,++++
"CC[C@@]1(O)C(=O)OCc2c1cc1n(c2=O)Cc2cc3ccccc3nc2-1 [compound 1, camptothecin]",enzyme inhibitory activity Top1 (compound-induced DNA cleavage score),recombinant Top1,++++
"COc1cnc2c(c1)C(=O)c1c-2n(CCCN2CCN(C)CC2)c(=O)c2cc(Cl)ccc12 [compound 16j, 3-Chloro-9-methoxy-6-(3-(4-methylpiperazin-1-yl)propyl)-5H-pyrido[3′,2′:4,5]cyclopenta[1,2-c]isoquinoline-5,11(6H)-dione]",enzyme inhibitory activity Top1 (compound-induced DNA cleavage score),recombinant Top1,+
"COc1cnc2c(c1)C(=O)c1c-2n(CCCNC(C)C)c(=O)c2cc(F)ccc12 [17f, 3-Fluoro-6-(3-(isopropylamino)propyl)-9-methoxy-5H-pyrido[3′,2′:4,5]cyclopenta[1,2-c]isoquinoline-5,11(6H)-dione]",enzyme inhibitory activity Top1 (compound-induced DNA cleavage score),recombinant Top1,++
